The source of these data is patent US6699834B1, “Method for treating cancer” (University of Maryland Biotechnology Institute, priority 1997, dated 2004).

Assay [1] concerns HIV-1. The settings on record: for HIV in vitro Inhibition: inhibition of HIV-1 replication in vitro (HIV-1 strains and HIV-1 primary isolates). The text has this:
To prepare HIV infected cells for the in vitro assay of hCG preparations and β-hCG peptides and derivatives, primary PBMCs, macrophages, and CD4^+ T cells isolated from peripheral blood and the H9 human T cell line, were acutely or chronically infected with 8 different HIV-1 strains: 4 cell line adapted viruses, namely the macrophage tropic Ba-L strain (Gartner et al., 1986, Science 233:215-219) and the CD4^+ T cell tropic MN, RF, and IIIB strains (10^5 TCID50/ml) (Popovic et al., 1984, Science […]; Gallo et al.; 1984, Science 224:500-503); 2 isolates, Ju1083 and G3, from Nigerian AIDS patients passed once in a CD4^+ T cell line (Sub-T1); and 2 primary (“clinical”) isolates from AIDS patients from Trinidad which were never passed in any cell line and were used at a titer of 7.5×10^4TCID50/ml. In all experiments; HIV1 (10^5 TCID50/ml) was added to the cells(10^6 cells/ml) for a 2 hour incubation after which the virus infected cells were washed with 10 ml phosphate buffered saline (PBS) three times to eliminate extra cellular virus. The test inhibitor, i.e. the hCG or β-hCG peptide preparation was then added and the cells were incubated with the test inhibiter for 9 to 10 days with serial sampling. Cultures were assayed for p24 antigen on days 3 to 10.
Peptides of the α- and β-subunits (0.05 to 50 nmoles/ml), native α chain preparation, and various crude preparations of the native hCG heterodimer (0.01 to 1,000 IU) and the native β-hCG subunit (100 to 1,000 μg) were tested for effects on HIV-1 replication in acutely infected cells-by measuring change in viral antigen levels in response to the above noted preparations (FIGS. 4A-D and Table 3).
The fractions were then tested for anti-HIV, anti-KS and pro-hematopoietic activities in vitro. To assay for inhibition of HIV-1 replication in vitro, the HIV-1 […] viral strain was used to infect PBMCs and PM-1 cells (derived from the HUT-78 T-cell lymphoma cell line) at 10^3 TCID50/ml as described in detail herein.

Assay [2] has as its system HIV RNA and protein expression. The experiment in a line: HIV RNA and protein expression in HIV-1 transgenic mice. The assay is classed as in vivo. As to conditions: for inhibition of HIV RNA and protein expression: inhibition of HIV RNA and protein expression in HIV-1 transgenic mice; for HIV-1 gene / protein expression in transgenic mice (in words): pups dosed via mother's milk. The text has this: The HIV-1 transgenic mice used for this study contain 7.4 kb of foreign DNA, including 5.1 kb of the HIV-1 proviral genome deleted in the gag and pol genes and 2.3 kb of vector (Dickie et al., 1991, Virology 185:109-119). […] In addition, these mice develop severe hyperkeratotic skin lesions with marked expression of gp 120 and nef genes (Kopp et al., 1993, AIDS Res. Hum. Retroviruses 9:267-275; Vasli et al., 1994, AIDS Res. Hum. Retroviruses 10:1241-1250).
Heterozygous transgenic mothers were treated with the hCG preparation subcutaneously twice weekly. Pups received hCG via the mother's milk.
Gene expression was assayed in total RNA extracted from the skin of Tg26 mice with RNAzol. One microgram of RNA was reverse transcribed into cDNA using random hexamer primers and […] reverse transcriptase (Life Technologies, MD) in a final volume of 30 μl. One tenth of the cDNA reactions were used for PCR amplification of various HIV gene sequences (env, tat, rev, nef and vif). In addition, glyceraldehyde 3-phosphate dehydrogenase (GAPHD) mRNA was amplified for each sample for normalization. Following 25 cycles of amplification, 10% of the PCR product was resolved by electrophoresis through 2% agarose gels and processed for Southern hybridization using FITC-labeled oligonucleotide probes complimentary to internal sequences of the amplicons. Detection was performed by chemiluminescence (Amersham) and relative mRNA levels determined by densitometry after normalization with GAPDH mRNA levels.
Finally, certain fractions were tested for their ability to increase survival, promote weight gain and reduce HIV-1 gene expression in HIV-1 transgenic mice as described herein.

Assay [3] deals with KS Y-1 and KS-SLK cells. The experiment in a line: Kaposi's Sarcoma clonogenic assay in cultured cells. The assay is classed as cell-based, human. The settings on record: for KS in vitro: inhibition of Kaposi's Sarcoma cell growth in vitro in cultured cells; for inhibition of KS cell growth in clonogenic assays (in words): KS Y-1 and KS SLK. How it is done: Briefly, the KS Y-1 cells were obtained from mononuclear cells isolated from pleural effusion of an AIDS patient with KS in the lungs. After the depletion of T lymphocytes, monocytes/macrophages and fibroblasts using monoclonal antibodies against CD2, CD3, CD4, CD8, CD10 and CD14 membrane antigens and baby rabbit complement, the cells were cultured in the absence of exogenous growth factors to select for transformed cells. […] Clonogenic assays were performed by seeding the KS Y-1 or KS-SLK cells in methylcellulose (0.8%, v/v), incubating the cells for 10 days in the presence or absence of the hCC, β-hCG or β-hCG peptide preparations and then counting the number of well-formed colonies of triplicate wells formed after seeding with 5×10^4 cells.
To assay for activity against Kaposi's sarcoma cell growth in vitro, the clonogenic assay described herein was used with the KS Y-1 and KS-SLK cultured Kaposi's Sarcoma cell lines,.

Assay [4] has as its system Kaposi's Sarcoma induced in mice. Kind of assay: Kaposi's Sarcoma tumors induced in mice by KS Y-1 cells. The assay is classed as in vivo. The settings on record: for KS in vivo: inhibition of Kaposi's Sarcoma induced in mice; for effect on KS tumors in mice (in words): mouse, in vivo. How it is done: The effects of the peptides on KS tumor cells were also evaluated in vivo in the KS mouse model. To induce KS tumors in the mice, 1×10^6/ml KS Y-1 cells in 50 μl PBS or saline were injected subcutaneously into immunodeficient mice (beige-XID-BNX mice). […] Methods for detection of apoptosis (from tissue biopsies) were used, as described in Lunardi-Iskandar et al.(1995, Nature 375:64-68). Briefly, the samples were stained in situ for the presence of cells with DNA fragmentation. Tissue slides from formalin-fixed tumors were treated with terminal deoxynucleotide transferase for extension of DNA ends (hydroxyl 3′) and incorporation of digoxigenin-11-dUTP according to the manufacturer's instructions (Oncor, Gaithersburg, Md.). Anti-digoxigenin antibody conjugated with the enzyme peroxidase allowed detection of apoptotic cells, which stain brown, whereas viable cells stain blue.
Certain fractions were tested for activity in reducing Kaposi's Sarcoma lesions in the Kaposi's Sarcoma mouse model as described herein. In this assay, starting one week after injection of the KS Y-1 cells to induce Kaposi's sarcoma formation, the mice were injected subcutaneously with 100 IU hCG. […] After one week of the week of treatment with the hCG fractions, the KS lesions were examined for cell apoptosis and regression as described herein.
Certain fractions of the APL™ hCG and early pregnancy urine were assayed for their ability to elicit apoptosis in Kaposi's Sarcoma lesions induced by injection of KS Y-1 cells in mice (n=3 mice for each treatment). The mice were administered 100 μl subcutaneously of the particular fraction each day for one week.

Assay [5] concerns hematopoietic progenitor cells. Kind of assay: Hematopoietic progenitor clonogenic assays (CFU-GEMM, BFU-e, CFU-GM). The assay is classed as cell-based, human. As to conditions: for Pro-hematopoiesis in vitro Enhancement: relative increase of hematopoietic colony cell number, hCG preparations 200 IU/ml, subunits and peptides 100 μg/ml. How it is done: The effect of hCG preparations and peptides was assayed on hematopoietic progenitor cells in vitro: Hematopoietic progenitor cells (2×10^5 cell/ml) were isolated from normal bone marrow and cord blood and seeded in methylcellulose. […] The hCG preparations were administered at 200 IU/ml and the β- and α-subunits and peptides were administered at 100 μg/ml. The native commercial preparation of hCG (APL™, Wyeth Ayerst) was pre-tested for anti-HIV and anti-KS activities. Aggregates containing more than 50 cells after 10 days of culture were counted as colonies.

Bridge positions count the residues as written; N and C are the ends. Ends that are not written are not given here.

“8. 41-54: β-hCG amino acids 41-54 (SEQ ID NO:3) (MTRVLQGVLPALPQ)”: the “HIV in vitro Inhibition” value in assay [1] was “− (“−” represents less than 10% effect)”. Besides, the “inhibition of HIV RNA and protein expression” value in assay [2] is “− (“−” represents less than 10% effect)”. Moreover, the KS in vitro entry in assay [3] is listed as “− (“−” represents less than 10% effect)”. The KS in vivo result in assay [4] is on record as “− (“−” represents less than 10% effect)”. The “Pro-hematopoiesis in vitro Enhancement” value in assay [5] was “− (“−” represents less than 10% effect)”.
“Cys-Val-Ala-Gln-Gly-Val-Leu-Pro-Ala-Leu-Pro-Gln-Val-Val-Cys (CVAQGVLPALPQVVC; disulfide 1-15 (inferred)) [12. Scrambled circ. 44-57]”: the “HIV in vitro Inhibition” value in assay [1] is “− (“−” represents less than 10% effect)”. In addition, in assay [2], the “HIV-1 gene / protein expression in transgenic mice (in words)” value (shortened to “HIV-1 gene / protein expression”) was “no inhibitory effect”. Further, in assay [3], the KS in vitro entry is reported as “− (“−” represents less than 10% effect)”. For the same substance, in assay [5], the “Pro-hematopoiesis in vitro Enhancement” value is listed as “− (“−” represents less than 10% effect)”.
For “47-55: β-hCG amino acids 47-55 (SEQ ID NO:20) (GVLPALPQV)”, the “inhibition of HIV-1 infection/replication in vitro (in words)” value in assay [1] is “inhibited HIV-1 replication”. The “HIV-1 gene / protein expression” value in assay [2] was “elicited inhibition”. The “effect on KS tumors in mice (in words)” value in assay [4] is recorded as “some anti-KS activity”. Moreover, the “promotion of hematopoiesis (in words)” value in assay [5] is recorded as “pro-hematopoietic effect”.
In the case of “9. 38-57: β-hCG amino acids 38-57 (CPTMTRVLQGVLPALPQVVC; UniProt P0DN86 58-77, looked up, fragment)”, in assay [1], the “HIV in vitro Inhibition” value was “− (“−” represents less than 10% effect)”. In assay [3], the KS in vitro result is “− (“−” represents less than 10% effect)”. Also, the KS in vivo result in assay [4] is given as “− (“−” represents less than 10% effect)”. The “Pro-hematopoiesis in vitro Enhancement” value in assay [5] is recorded as “− (“−” represents less than 10% effect)”.
On to “2. 109-145: β-hCG amino acids 109-145 (SEQ ID NO:25) (TCDDPRFQDSSSSKAPPPSLPSPSRLPGPSDTPILPQ)”, for which, in assay [1], the “inhibition of HIV-1 infection/replication in vitro (in words)” value is given as “inhibited HIV-1 replication” and the “HIV in vitro Inhibition” value is given as “+ (“+” represents greater than 15% effect)”. In addition, in assay [3], the “inhibition of KS cell growth in clonogenic assays (in words)” value (“inhibition of KS cell growth” for short) was “strongest anti-tumor effects” and the KS in vitro result was “+ (“+” represents greater than 15% effect)”. For the same substance, in assay [4], the KS in vivo entry is given as “+ (“+” represents greater than 15% effect)” and the “effect on KS tumors in mice (in words)” value is reported as “some anti-KS activity”. Also, in assay [5], the “Pro-hematopoiesis in vitro Enhancement” value is on record as “+ (“+” represents greater than 15% effect)”.
With “35. 1-15: α-hCG amino acids 1-15 (APDVQDCPECTLQEN; UniProt P01215 25-39, looked up, fragment)”, the KS in vitro entry in assay [3] is listed as “− (“−” represents less than 10% effect)”. The KS in vivo result in assay [4] is given as “− (“−” represents less than 10% effect)”. For the same substance, the “Pro-hematopoiesis in vitro Enhancement” value in assay [5] is recorded as “− (“−” represents less than 10% effect)”.
“1. 109-119: β-hCG amino acids 109-119 (SEQ ID NO:7) (TCDDPRFQDSS)”: in assay [1], the “inhibition of HIV-1 infection/replication in vitro (in words)” value was “inhibit HIV-1 replication in vitro” and the “HIV in vitro Inhibition” value was “+ (“+” represents greater than 15% effect)”. Moreover, in assay [3], the “inhibition of KS cell growth” value is “strongest anti-tumor effects” and the KS in vitro entry is on record as “+ (“+” represents greater than 15% effect)”. Moreover, in assay [4], the KS in vivo entry is reported as “+ (“+” represents greater than 15% effect)” and the “effect on KS tumors in mice (in words)” value is on record as “some anti-KS activity”. In assay [5], the “promotion of hematopoiesis (in words)” value is listed as “directly promoted” and the “Pro-hematopoiesis in vitro Enhancement” value is “+ (“+” represents greater than 15% effect)”.
As for “5. 47-57::108-119: β-hCG 47-57 linked at the C-terminus to the N-terminus of 108-119 (SEQ ID NO:32) (GVLPALPQVVCLTCDDPRFQDSS)”, in assay [1], the “inhibition of HIV-1 infection/replication in vitro (in words)” value is given as “inhibit HIV-1 replication in vitro” and the “HIV in vitro Inhibition” value is recorded as “++ (“++” represents greater than 40% effect)”. Further, in assay [2], the “inhibition of HIV RNA and protein expression” value is recorded as “++ (“++” represents greater than 40% effect)”. In assay [3], the “inhibition of KS cell growth” value is “strongest anti-tumor effects” and the KS in vitro result is “++ (“++” represents greater than 40% effect)”. In assay [4], the KS in vivo result was “+++ (“+++” represents greater than 70% effect)” and the “effect on KS tumors in mice (in words)” value is listed as “significant anti-KS activity”.
Regarding “CVAQPGPQVLLVLC (cysteine pairing not given here) [11. Scrambled 45-57]”, in assay [1], the “inhibition of HIV-1 infection/replication in vitro (in words)” value is “inhibitory effect” and the “HIV in vitro Inhibition” value is reported as “++ (“++” represents greater than 40% effect)”. The “HIV-1 gene / protein expression” value in assay [2] was “some inhibition”. Further, in assay [3], the “inhibition of KS cell growth” value is “exhibited activity” and the KS in vitro result was “++ (“++” represents greater than 40% effect)”.
